pIC50: −log10 of the molar value.
How the values were obtained:
Format in all cases: cell-based
human TLR7 = target: T1, human TLR7 (Homo sapiens, UniProt Q9NYK1); assay: TLR7 inhibition reporter assay (HEK-Blue cells, SEAP reporter, gardiquimod stimulation); conditions: HEK-Blue cells overexpressing human TLR7, SEAP reporter, gardiquimod 7.5 μM
T1 construct: host or cells: HEK-Blue cells (HEK293-derived reporter line)
T1 sequence (Q9NYK1 27-1049): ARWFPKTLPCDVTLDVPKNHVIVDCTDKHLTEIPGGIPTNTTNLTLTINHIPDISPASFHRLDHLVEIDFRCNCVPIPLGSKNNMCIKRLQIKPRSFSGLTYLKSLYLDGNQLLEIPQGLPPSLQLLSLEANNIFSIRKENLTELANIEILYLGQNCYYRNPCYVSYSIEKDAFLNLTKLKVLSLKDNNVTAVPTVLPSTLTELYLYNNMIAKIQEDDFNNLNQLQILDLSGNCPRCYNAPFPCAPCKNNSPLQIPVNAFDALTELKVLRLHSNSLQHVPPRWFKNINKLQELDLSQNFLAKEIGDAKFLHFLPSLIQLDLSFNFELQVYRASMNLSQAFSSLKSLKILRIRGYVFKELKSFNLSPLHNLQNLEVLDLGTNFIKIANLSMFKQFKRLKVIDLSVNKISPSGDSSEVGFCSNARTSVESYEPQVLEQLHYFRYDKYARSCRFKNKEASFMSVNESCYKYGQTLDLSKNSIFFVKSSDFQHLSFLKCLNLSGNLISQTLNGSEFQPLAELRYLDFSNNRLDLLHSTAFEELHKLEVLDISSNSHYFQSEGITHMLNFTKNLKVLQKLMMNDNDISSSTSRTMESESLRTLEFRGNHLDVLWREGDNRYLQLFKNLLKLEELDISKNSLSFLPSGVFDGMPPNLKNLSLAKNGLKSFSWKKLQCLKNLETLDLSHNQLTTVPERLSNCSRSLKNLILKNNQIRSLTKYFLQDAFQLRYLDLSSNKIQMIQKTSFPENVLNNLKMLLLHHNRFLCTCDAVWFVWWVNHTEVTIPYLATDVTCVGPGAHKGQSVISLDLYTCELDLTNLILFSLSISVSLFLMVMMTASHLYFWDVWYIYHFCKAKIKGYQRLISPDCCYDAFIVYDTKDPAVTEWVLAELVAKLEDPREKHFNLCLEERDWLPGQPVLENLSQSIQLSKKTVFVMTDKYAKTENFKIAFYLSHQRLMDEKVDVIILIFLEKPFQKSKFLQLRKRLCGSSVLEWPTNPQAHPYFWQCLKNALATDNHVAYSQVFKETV
Outline: (§1)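 HEK-Blue cells overexpressing the receptor, with NF-κB/AP-1-driven SEAP, were pre-treated 30 min at room temperature with compound (0.05 nM–50 μM), then stimulated with gardiquimod 7.5 μM (TLR7), R848 15.9 μM (TLR8) or ODN2006 5 nM (TLR9). SEAP was read after 22 h at 37 °C as percent inhibition.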

human TLR8 = target: T2, human TLR8 (Homo sapiens, UniProt Q9NR97); assay: TLR8 inhibition reporter assay (HEK-Blue cells, SEAP reporter, R848 stimulation); conditions: HEK-Blue cells overexpressing human TLR8, SEAP reporter, R848 15.9 μM
T2 construct: host or cells: HEK-Blue cells (HEK293-derived reporter line)
T2 sequence (Q9NR97 27-1041): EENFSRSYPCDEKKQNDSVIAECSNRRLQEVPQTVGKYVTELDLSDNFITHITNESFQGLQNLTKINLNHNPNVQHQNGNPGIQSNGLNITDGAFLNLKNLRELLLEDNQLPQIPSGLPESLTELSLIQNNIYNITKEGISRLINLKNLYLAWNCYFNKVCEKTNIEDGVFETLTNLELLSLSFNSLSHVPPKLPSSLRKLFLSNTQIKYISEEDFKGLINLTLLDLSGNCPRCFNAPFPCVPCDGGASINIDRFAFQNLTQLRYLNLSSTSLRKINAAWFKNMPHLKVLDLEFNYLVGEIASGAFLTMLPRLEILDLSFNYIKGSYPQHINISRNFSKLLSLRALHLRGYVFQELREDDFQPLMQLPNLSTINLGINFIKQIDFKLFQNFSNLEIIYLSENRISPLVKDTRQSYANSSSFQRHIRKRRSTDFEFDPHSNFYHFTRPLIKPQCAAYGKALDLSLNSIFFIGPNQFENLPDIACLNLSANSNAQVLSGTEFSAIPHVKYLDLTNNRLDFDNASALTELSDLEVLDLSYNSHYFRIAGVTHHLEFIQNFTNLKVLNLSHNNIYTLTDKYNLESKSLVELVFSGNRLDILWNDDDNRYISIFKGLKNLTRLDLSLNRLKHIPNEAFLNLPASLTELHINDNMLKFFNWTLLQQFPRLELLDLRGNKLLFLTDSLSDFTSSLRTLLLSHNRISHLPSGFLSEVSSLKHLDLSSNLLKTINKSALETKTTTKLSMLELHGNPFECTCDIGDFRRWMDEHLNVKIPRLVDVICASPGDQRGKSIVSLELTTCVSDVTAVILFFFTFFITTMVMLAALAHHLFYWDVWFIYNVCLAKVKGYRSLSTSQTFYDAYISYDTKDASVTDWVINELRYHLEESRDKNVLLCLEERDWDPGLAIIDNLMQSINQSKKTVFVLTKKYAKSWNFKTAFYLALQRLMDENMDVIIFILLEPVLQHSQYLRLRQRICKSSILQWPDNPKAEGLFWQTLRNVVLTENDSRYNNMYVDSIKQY
Outline: as §1

human TLR9 = target: T3, human TLR9 (Homo sapiens, UniProt Q9NR96); assay: TLR9 inhibition reporter assay (HEK-Blue cells, SEAP reporter, ODN2006 stimulation); conditions: HEK-Blue cells overexpressing human TLR9, SEAP reporter, ODN2006 5 nM
T3 construct: host or cells: HEK-Blue cells (HEK293-derived reporter line)
T3 sequence (Q9NR96 26-1032): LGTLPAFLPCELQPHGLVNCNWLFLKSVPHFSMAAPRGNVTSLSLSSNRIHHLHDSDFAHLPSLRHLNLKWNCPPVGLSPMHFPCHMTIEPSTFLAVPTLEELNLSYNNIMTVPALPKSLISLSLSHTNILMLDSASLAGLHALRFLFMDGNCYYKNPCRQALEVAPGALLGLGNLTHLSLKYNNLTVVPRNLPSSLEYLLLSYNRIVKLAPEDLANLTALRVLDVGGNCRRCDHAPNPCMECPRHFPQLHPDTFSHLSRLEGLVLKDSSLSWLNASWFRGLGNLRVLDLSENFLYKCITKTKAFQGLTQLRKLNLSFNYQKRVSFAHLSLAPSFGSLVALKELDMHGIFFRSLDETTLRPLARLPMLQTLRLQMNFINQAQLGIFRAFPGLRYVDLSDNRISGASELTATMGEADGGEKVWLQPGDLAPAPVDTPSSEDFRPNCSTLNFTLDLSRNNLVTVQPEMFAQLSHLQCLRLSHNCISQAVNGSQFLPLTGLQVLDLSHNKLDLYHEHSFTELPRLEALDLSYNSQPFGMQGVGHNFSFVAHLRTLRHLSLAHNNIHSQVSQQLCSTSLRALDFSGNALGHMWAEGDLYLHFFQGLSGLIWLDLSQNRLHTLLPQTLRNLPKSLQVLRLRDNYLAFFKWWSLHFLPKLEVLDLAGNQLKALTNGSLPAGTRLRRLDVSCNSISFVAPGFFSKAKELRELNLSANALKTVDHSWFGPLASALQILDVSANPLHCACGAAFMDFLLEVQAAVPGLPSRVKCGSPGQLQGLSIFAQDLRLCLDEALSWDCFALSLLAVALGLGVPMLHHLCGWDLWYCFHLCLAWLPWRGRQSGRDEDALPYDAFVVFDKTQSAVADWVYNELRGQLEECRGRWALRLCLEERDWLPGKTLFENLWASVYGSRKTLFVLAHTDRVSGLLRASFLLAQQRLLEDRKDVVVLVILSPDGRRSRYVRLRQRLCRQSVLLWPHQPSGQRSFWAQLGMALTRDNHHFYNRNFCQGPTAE
Outline: as §1

Row | Compound | pIC50 (human TLR7) | pIC50 (human TLR8) | pIC50 (human TLR9)
1 | CCc1c(-c2ccnc3[nH]ncc23)[nH]c2ccc(C3CCNCC3)c(C)c12 [Example 254, 4-(3-ethyl-4-methyl-5-(piperidin-4-yl)-1H-indol-2-yl)-1H-pyrazolo[3,4-b]pyridine] | 4.30 to 6.00 | 4.30 to 6.00 | < 4.30
2 | CNC(=O)c1cnn2c(C)cc(-c3[nH]c4ccc(C5CCNCC5)cc4c3C(C)C)cc12 [Example 274, 5-(3-isopropyl-5-(piperidin-4-yl)-1H-indol-2-yl)-N,7-dimethylpyrazolo[1,5-a]pyridine-3-carboxamide] | 6.00 to 7.00 | < 5.51 | 4.30 to 6.00
3 | CC(C)c1c(-c2ccnc3[nH]ncc23)[nH]c2ccc(C3CCN(Cc4cn(C)cn4)CC3)cc12 [Example 906, 4-(3-isopropyl-5-(1-((1-methyl-1H-imidazol-4-yl)methyl)piperidin-4-yl)-1H-indol-2-yl)-1H-pyrazolo[3,4-b]pyridine] | > 7.00 | > 7.00 | 6.00 to 7.00
4 | CCc1c(-c2cc3cn(C)nc3cn2)[nH]c2ccc(C3CCNCC3)cc12 [Example 98, 5-(3-ethyl-5-(piperidin-4-yl)-1H-indol-2-yl)-2-methyl-2H-pyrazolo[3,4-c]pyridine] | 4.30 to 6.00 | 6.00 to 7.00 | 4.30 to 6.00
5 | Cc1cc(-c2[nH]c3ccc(C4CCN(C5CCS(=O)(=O)CC5)CC4)cc3c2C(C)C)cc2cccnc12 [Example 800, 4-(4-(3-isopropyl-2-(8-methylquinolin-6-yl)-1H-indol-5-yl)piperidin-1-yl)tetrahydro-2H-thiopyran 1,1-dioxide] | > 7.00 | 6.00 to 7.00 | 4.30 to 6.00
6 | CC(C)c1c(-c2ccc3nnnn3c2)[nH]c2ccc(C3CCNCC3)cc12 [Example 80, 6-(3-isopropyl-5-(piperidin-4-yl)-1H-indol-2-yl)tetrazolo[1,5-a]pyridine] | > 7.00 | 6.00 to 7.00 | 4.30 to 6.00
7 | CCc1c(-c2ccnc3[nH]ncc23)[nH]c2ccc(C3CCN(Cc4cnn(C)c4)CC3)cc12 [Example 901, 4-(3-ethyl-5-(1-((1-methyl-1H-pyrazol-4-yl)methyl)piperidin-4-yl)-1H-indol-2-yl)-1H-pyrazolo[3,4-b]pyridine] | 6.00 to 7.00 | > 7.00 | 4.30 to 6.00
8 | CC(C)c1c(-c2ccnc3[nH]c(=O)oc23)[nH]c2ccc(C3CCNCC3)cc12 [Example 58, 7-(3-isopropyl-5-(piperidin-4-yl)-1H-indol-2-yl)oxazolo[4,5-b]pyridin-2(3H)-one] | 4.30 to 6.00 | 4.30 to 6.00 | 4.30 to 6.00
9 | Cc1c(-c2ncnc3[nH]cnc23)[nH]c2ccc(C3CCN(C4CCN(C(C)C)CC4)CC3)cc12 [Example 815, 6-(5-(1′-isopropyl-[1,4′-bipiperidin]-4-yl)-3-methyl-1H-indol-2-yl)-9H-purine] | 4.30 to 6.00 | > 7.00 | > 7.00

The remaining lines, values ahead:

Row | pIC50 (human TLR7) | pIC50 (human TLR8) | pIC50 (human TLR9) | Compound
10 | > 7.00 | > 7.00 | 6.00 to 7.00 | CC(C)c1c(-c2cc(CO)c3nccn3c2)[nH]c2ccc(C3CCN(C(=O)CN(C)C)CC3)cc12 [Example 492, 2-(dimethylamino)-1-(4-(2-(8-(hydroxymethyl)imidazo[1,2-a]pyridin-6-yl)-3-isopropyl-1H-indol-5-yl)piperidin-1-yl)ethan-1-one]
11 | > 7.00 | > 7.00 | 4.30 to 6.00 | CCCN1CCC(c2ccc3[nH]c(-c4ccc5c(c4)COC5=O)c(C(C)C)c3c2)CC1 [Example 953, 5-(3-isopropyl-5-(1-propylpiperidin-4-yl)-1H-indol-2-yl)isobenzofuran-1(3H)-one]
12 | 6.00 to 7.00 | 6.00 to 7.00 | 6.00 to 7.00 | Cc1cnc2ccc(-c3[nH]c4ccc(C5CCN(C(=O)CN(C)C)CC5)cc4c3C(C)C)cn12 [Example 522, 2-(dimethylamino)-1-(4-(3-isopropyl-2-(3-methylimidazo[1,2-a]pyridin-6-yl)-1H-indol-5-yl)piperidin-1-yl)ethan-1-one]
13 | 6.00 to 7.00 | 6.00 to 7.00 | 4.30 to 6.00 | CNC(=O)CN1CCC(c2ccc3[nH]c(-c4cccn5ncnc45)c(C(C)C)c3c2)CC1 [Example 361, 2-(4-(2-([1,2,4]triazolo[1,5-a]pyridin-8-yl)-3-isopropyl-1H-indol-5-yl)piperidin-1-yl)-N-methylacetamide]
14 | 6.00 to 7.00 | > 7.00 | 4.30 to 6.00 | CC(C)c1c(-c2cn3ccnc3cc2C(F)(F)F)[nH]c2ccc(C3CCNCC3)cc12 [Example 135, 6-(3-isopropyl-5-(piperidin-4-yl)-1H-indol-2-yl)-7-(trifluoromethyl)imidazo[1,2-a]pyridine]
15 | > 7.00 | > 7.00 | 4.30 to 6.00 | Cc1cc(-c2[nH]c3ccc(C4CCN(CC(=O)N(C)C)CC4)cc3c2C(C)C)c2ccccc2n1 [Example 327, 2-(4-(3-isopropyl-2-(2-methylquinolin-4-yl)-1H-indol-5-yl)piperidin-1-yl)-N,N-dimethylacetamide]
